From paper PMC8151276, “An Integrated Approach toward NanoBRET Tracers for Analysis of GPCR Ligand Engagement” (Molecules, 2021) come the findings set out here.

The structures appear in SMILES notation.

In test [1] the target is T1, MCHR2 (Homo sapiens, UniProt Q969V1).
T1 construct: purchased Promega (in-house HiBiT-GPCR construct library, NanoBRET)
Nature of the test: NanoBRET screen HiBiT-MCHR2 in HEK293. It is filed as binding. Here is the method: (§1) Each tracer candidate was screened across the entire library of HiBiT-GPCR constructs using NanoBRET as the detection modality. As depicted in Figure 4A, the specificity of interactions was evaluated through decrease in BRET due to competitive displacement of a bound tracer by excess parental compound. Each tracer was analyzed for binding to each HiBiT-GPCR fusion in the absence and in the presence of competing parental compound. Briefly, HEK293 cells were transfected with HiBiT-GPCR constructs diluted into promoterless DNA to reduce expression and maximize translocation to the cell surface. Each tracer candidate was then screened at concentrations of 1 μM and 0.1 μM across cells expressing these fusions. Cells were treated for 1.5 h with tracer either alone or in the presence of 20 μM competing parental compound (i.e., control). BRET was measured upon addition of purified LgBiT and subsequent complementation with HiBiT genetically fused to a GPCR. The specificity of interactions was assessed through a decrease in BRET signal due to competitive displacement of the bound tracer. To further gauge the robustness of these interactions, the fold response over the control (i.e., BRETtracer/BRETcontrol) was calculated. We chose a 1.5-fold response, which translates to ≥7-fold signal over noise as the minimal threshold required to score an interaction as positive.
(§2) HiBiT-GPCR DNA constructs were diluted in 10 mM Tris pH 8 to a final concentration of 0.01 μg/μL, arrayed in 96-well plates and stored at −20 °C. For transfection, HEK293 cells were suspended in Opti-MEM (without phenol red) supplemented with 2% fetal bovine serum (Seradigm) and 100 units/mL penicillin–streptomycin (Gibco) at a final concentration of 220,000 cells/mL and dispensed into white 96-well plates at 90 μL/well. Subsequent transfections and screens were carried using an Agilent Bravo Automated Liquid Handling Platform. First, the 96-well HiBiT DNA arrays were diluted 25-fold in Opti-MEM (without serum or phenol red) to a final concentration of 0.0004 μg/μL and 20 μL of the diluted DNAs were transferred into new 96-well plates. Next, promoterless carrier DNA (1 μg/μL) was diluted 25-fold (0.04 μg/μL) and then dispensed into the diluted arrays at 20 μL/well. Following brief mixing, Viafect transfection reagent (Promega) diluted 16-fold into Opti-MEM was dispensed into the plates at 40 μL/well. After mixing by pipetting, plates were incubated for 10 min on the pipetting station deck. The DNA-transfection reagent complexes were then added to plates containing cells. To facilitate the screen, 10 μL of DNA-transfection reagent complexes were added in duplicates to the top 4 and bottom 4 rows, resulting in two identical 48-well arrays per plate. Plates with transfected cells were incubated for 18–20 h at 37 °C/5% CO2. A screen of each tracer across the entire library using two different concentrations requires duplicate plates of transfected cells. Depending on the number of tracers being screened, transfections can be scaled up using the same ratios. The next day, for each tracer, four 20× screening solutions in tracer dilution buffer (Promega) were prepared: two duplicates at final concentration of 20 μM and two duplicates at a final concentration of 2 μM. […] The four resulting solutions were diluted 4-fold in Opti-MEM without serum or phenol red to generate 5× solutions (5 µM and 0.5 µM tracer +/− 100 μM competing compound). To screen the library, a BioTek MultiFlo FX liquid dispenser was used to dispense 22.5 µL of tracer solution to the top 4 rows and 22.5 µL tracer + competing compound solution to the 4 bottom rows. Plates were briefly mixed on an orbital shaker and incubated for 1.5 h at room temperature. […] Plates were briefly mixed on an orbital shaker and incubated for 15 min to allow complementation.

The target in test [2] is T2, EDNRB (Homo sapiens, UniProt P24530).
T2 construct: purchased Promega (in-house HiBiT-GPCR construct library, NanoBRET)
T2 sequence (P24530 27-442): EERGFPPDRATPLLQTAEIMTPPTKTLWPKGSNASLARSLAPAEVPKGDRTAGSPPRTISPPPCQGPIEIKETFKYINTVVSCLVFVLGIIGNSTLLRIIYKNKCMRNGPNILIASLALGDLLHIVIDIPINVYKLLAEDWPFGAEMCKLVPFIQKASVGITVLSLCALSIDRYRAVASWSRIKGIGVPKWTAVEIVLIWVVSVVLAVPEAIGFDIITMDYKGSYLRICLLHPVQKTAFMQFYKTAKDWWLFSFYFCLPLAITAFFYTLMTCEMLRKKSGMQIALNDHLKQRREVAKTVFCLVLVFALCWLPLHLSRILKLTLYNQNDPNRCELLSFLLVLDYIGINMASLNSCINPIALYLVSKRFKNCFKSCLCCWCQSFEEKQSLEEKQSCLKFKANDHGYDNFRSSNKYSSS
The test is described as follows: NanoBRET screen HiBiT-EDNRB in HEK293. Format: binding. Here is the method: as §1, §2
On the technique in general: Bioluminescence resonance energy transfer reports proximity on the nanometre scale.

T1 sequence (Q969V1 whole entry): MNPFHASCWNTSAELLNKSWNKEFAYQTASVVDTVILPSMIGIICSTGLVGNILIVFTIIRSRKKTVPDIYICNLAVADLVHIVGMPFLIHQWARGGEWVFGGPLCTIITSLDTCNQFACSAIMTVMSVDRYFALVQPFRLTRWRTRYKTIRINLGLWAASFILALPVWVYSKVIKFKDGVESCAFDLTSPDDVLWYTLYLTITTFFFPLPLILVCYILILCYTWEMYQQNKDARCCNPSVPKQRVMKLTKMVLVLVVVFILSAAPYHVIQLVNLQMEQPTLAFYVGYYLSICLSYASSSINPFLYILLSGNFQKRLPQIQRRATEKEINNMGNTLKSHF

As for `O=C(CCOCCOCCOCCOCCNC(=O)CCc1ccc2n1[B-](F)(F)[N+]1=C(c3ccc[nH]3)C=CC1=C2)NCCCN1CCN(C2=Nc3ccccc3Oc3ccc(Cl)cc32)CC1` [Loxapine-a-2-NB590], the “NanoBRET Fold Response” value in test [1] (MCHR2, tracer 0.1μM) worked out at 1.02; in test [1] (MCHR2, tracer 1μM) it was 1.12; in test [2] (EDNRB, tracer 0.1μM), 1.05; in test [2] (EDNRB, tracer 1μM), 0.89.
As to `CCCn1c(=O)c2[nH]c(-c3ccc(OCC(=O)NCCNC(=O)CCOCCNC(=O)c4ccc(CNC(=O)CCc5ccc6n5[B-](F)(F)[N+]5=C(c7ccc[nH]7)C=CC5=C6)cc4)cc3)nc2n(CCC)c1=O` [XAC-3-NB590], the “NanoBRET Fold Response” value in test [1] (MCHR2, tracer 0.1μM) was found to be 0.96; in test [1] (MCHR2, tracer 1μM), 0.97; in test [2] (EDNRB, tracer 0.1μM), 0.92; in test [2] (EDNRB, tracer 1μM), 1.18.
In the case of `CN(C)CCC=C1c2ccccc2CCc2ccc(C(=O)NCCNC(=O)CCOCCOCCOCCOCCNC(=O)CCc3ccc4n3[B-](F)(F)[N+]3=C(c5ccc[nH]5)C=CC3=C4)cc21` [Amitriptyline-a-2-NB590], the “NanoBRET Fold Response” value in test [1] (tracer at 0.1μM) is given as 0.97; in test [1] (tracer at 1μM), 1.01; in test [2] (tracer at 0.1μM), 1.04; in test [2] (tracer at 1μM), 1.05.
In the case of `CCOC(=O)c1cc(C#N)c(N2CCC(C(=O)NS(=O)(=O)Cc3ccccc3/C=C/C(=O)NCCNC(=O)CCc3ccc4n3[B-](F)(F)[N+]3=C(c5ccc[nH]5)C=CC3=C4)CC2)nc1C` [AZD1283-1-NB590], the “NanoBRET Fold Response” value in test [1] (MCHR2, 0.1μM) was 1.04; in test [1] (MCHR2, 1μM) it was 1.06; in test [2] (EDNRB, 0.1μM), 1.03; in test [2] (EDNRB, 1μM) it was 0.98.
